Test results published in patent US8673347B2 (Creabilis Therapeutics S.p.A., priority 2005, dated 2014).
Like-named read-outs stand apart in the source and are kept apart here.

Columns and labels:
[1] = Dermal absorption study in mice of K-252a versus K-252a-PEG; format: in vivo; conditions: male, Balb/C, mouse, plasma, topical, 3 mg/kg dermal
Experimental: The experiment was performed using a dose of active agent in both preparation of 3 mg/kg. For the present study, three subsequent experiments have been performed in vivo using each time 6 Balb/C male mice purchased from Charles River (Calco, Italy). The mice were subdivided in the following experimental groups (two animals per group): • Group 1: The mice were treated with 3 mg/kg of K-252-a, by dermal administration and sacrificed after 30 minutes. • Group 2: The mice were treated with 3 mg/kg of K-252-a by dermal administration and sacrificed after 60 minutes. • Group 3: The mice were treated with 3 mg/kg of K-252-a-PEG(2K) of Example 1 by dermal administration and sacrificed after 60 minutes.
The oil-based preparations are in form of emulsions which are rendered homogeneous by repeated sonication. […] The applied emulsion was gently massaged on the back of the mice to favor the absorption. The mice were then sacrificed respectively after 30 or 60 minutes under ether anaesthesia and the blood was collected from the ventral aorta with the insulin syringe (approx. 1 mL/animal). […] The blood samples were then centrifugated at 2000 g for 5 minutes in a refrigerated (4° C.) centrifuge, purified by solid phase extraction (SPE) and subsequently analyzed through HPLC quantitative analysis (RT-HPLC analysis with)(Terra C18 column, eluent water/ACN). […]

[2] = PK study in mice, repeated dermal administration; format: in vivo; conditions: repeated dermal QD for 5 days, 1.03 mg/kg (about 2 μmol/kg), t = 3 h after last administration
Experimental: At each sampling time, approximately 0.4 mL blood samples were collected from the ventral aorta of each animal using an insulin syringe, under deep ether anesthesia, and transferred into polyethylene Eppendorf tubes containing 50 μL of 5% EDTA water solution to prevent blood clotting. Blood samples were kept in ice until centrifugation at 1400 g for 5 min. in a refrigerated centrifuge (2-4° C.). From each tube plasma samples were then recovered, put in new Eppendorf tubes and frozen at −20° C. which until the HPLC analysis.

FLT3 = FLT3 (Homo sapiens, UniProt P36888); test: Kinase inhibition profile; format: biochemical; conditions: 200 nM; read-out: inhibitory activity
FLT3, sequence (P36888 27-993, species assumed): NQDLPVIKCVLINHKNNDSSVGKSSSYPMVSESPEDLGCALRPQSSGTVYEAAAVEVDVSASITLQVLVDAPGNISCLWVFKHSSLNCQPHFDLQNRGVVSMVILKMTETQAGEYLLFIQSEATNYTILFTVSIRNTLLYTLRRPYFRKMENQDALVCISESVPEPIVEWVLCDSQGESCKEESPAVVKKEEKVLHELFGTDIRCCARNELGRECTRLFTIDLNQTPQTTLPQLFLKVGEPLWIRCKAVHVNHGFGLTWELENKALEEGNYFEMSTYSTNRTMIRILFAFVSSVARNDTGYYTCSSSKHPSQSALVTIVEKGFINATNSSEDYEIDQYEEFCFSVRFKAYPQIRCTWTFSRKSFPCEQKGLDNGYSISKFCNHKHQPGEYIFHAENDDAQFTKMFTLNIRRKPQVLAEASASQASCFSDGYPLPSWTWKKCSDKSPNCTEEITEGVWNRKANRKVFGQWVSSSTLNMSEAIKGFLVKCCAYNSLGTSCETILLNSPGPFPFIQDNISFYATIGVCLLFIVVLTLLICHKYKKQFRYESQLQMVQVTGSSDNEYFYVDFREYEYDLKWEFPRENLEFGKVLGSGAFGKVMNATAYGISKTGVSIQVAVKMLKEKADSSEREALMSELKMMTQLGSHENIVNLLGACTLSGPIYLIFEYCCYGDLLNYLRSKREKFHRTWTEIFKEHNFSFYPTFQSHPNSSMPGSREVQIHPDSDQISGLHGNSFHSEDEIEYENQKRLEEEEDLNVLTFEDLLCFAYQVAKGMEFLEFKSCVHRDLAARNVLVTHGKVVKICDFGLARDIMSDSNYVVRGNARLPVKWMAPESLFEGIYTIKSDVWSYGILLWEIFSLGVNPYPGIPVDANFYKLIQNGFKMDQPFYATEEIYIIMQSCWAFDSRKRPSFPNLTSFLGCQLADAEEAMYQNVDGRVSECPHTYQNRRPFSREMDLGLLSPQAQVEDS
Experimental: (§1) The preparation of CT327 and the reference compounds was conducted following a similar procedure. CT327 also was tested at a concentration of 200 nM.
(§2) The inhibitory activity of CT327 against the tested tyrosine kinase and serine/threonine kinases is shown in the Table a and b, respectively, reported in FIG. 9b.

JAK1 = JAK1 (Homo sapiens, UniProt P23458); test: Kinase inhibition profile; format: biochemical; conditions: 200 nM; read-out: inhibitory activity
JAK1, sequence (P23458 whole entry, species assumed): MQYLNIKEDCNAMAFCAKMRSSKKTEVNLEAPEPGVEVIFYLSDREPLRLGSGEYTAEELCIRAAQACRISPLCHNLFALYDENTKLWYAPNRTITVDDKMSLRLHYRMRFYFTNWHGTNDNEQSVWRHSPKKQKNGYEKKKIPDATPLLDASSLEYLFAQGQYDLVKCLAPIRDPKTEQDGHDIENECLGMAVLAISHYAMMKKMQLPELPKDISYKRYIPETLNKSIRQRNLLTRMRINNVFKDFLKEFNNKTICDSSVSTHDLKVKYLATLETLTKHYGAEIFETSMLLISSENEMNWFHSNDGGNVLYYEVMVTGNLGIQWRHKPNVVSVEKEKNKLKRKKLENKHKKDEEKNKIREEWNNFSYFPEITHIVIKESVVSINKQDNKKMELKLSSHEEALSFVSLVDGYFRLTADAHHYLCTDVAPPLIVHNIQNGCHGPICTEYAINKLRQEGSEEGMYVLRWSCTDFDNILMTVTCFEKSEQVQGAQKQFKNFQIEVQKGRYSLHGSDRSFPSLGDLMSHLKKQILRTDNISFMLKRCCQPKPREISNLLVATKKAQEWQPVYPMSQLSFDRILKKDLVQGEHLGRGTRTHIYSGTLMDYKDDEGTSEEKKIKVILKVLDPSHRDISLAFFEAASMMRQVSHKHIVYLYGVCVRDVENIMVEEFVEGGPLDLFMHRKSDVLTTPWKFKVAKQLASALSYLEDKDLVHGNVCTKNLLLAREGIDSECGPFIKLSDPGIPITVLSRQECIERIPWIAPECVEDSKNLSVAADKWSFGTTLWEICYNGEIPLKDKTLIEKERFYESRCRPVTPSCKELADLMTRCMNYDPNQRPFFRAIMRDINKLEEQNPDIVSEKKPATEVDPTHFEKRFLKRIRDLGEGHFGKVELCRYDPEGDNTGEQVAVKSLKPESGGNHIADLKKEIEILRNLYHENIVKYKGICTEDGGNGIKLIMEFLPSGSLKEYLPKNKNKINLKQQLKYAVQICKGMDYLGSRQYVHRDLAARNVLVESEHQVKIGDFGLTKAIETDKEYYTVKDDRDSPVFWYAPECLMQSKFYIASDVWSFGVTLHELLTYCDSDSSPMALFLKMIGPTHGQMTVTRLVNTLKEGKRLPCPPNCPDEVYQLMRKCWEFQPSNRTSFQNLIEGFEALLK
Experimental: as §1, §2

MET = MET (Homo sapiens, UniProt P08581); test: Kinase inhibition profile; format: biochemical; conditions: 200 nM; read-out: inhibitory activity
Experimental: as §1, §2

TrkC = TrkC (Homo sapiens, UniProt Q16288); test: Kinase inhibition profile; format: biochemical; conditions: 200 nM; read-out: inhibitory activity
Experimental: as §1, §2

FGR = FGR (Homo sapiens, UniProt P09769); test: Kinase inhibition profile; format: biochemical; conditions: 200 nM; read-out: inhibitory activity
Experimental: as §1, §2

JAK3 = JAK3 (Homo sapiens, UniProt P52333); test: Kinase inhibition profile; format: biochemical; conditions: 200 nM; read-out: inhibitory activity
Experimental: as §1, §2

MER = MER (Homo sapiens, UniProt Q12866); test: Kinase inhibition profile; format: biochemical; conditions: 200 nM; read-out: inhibitory activity
Experimental: as §1, §2

TYK2 = TYK2 (Homo sapiens, UniProt P29597); test: Kinase inhibition profile; format: biochemical; conditions: 200 nM; read-out: inhibitory activity
TYK2, sequence (P29597 whole entry, species assumed): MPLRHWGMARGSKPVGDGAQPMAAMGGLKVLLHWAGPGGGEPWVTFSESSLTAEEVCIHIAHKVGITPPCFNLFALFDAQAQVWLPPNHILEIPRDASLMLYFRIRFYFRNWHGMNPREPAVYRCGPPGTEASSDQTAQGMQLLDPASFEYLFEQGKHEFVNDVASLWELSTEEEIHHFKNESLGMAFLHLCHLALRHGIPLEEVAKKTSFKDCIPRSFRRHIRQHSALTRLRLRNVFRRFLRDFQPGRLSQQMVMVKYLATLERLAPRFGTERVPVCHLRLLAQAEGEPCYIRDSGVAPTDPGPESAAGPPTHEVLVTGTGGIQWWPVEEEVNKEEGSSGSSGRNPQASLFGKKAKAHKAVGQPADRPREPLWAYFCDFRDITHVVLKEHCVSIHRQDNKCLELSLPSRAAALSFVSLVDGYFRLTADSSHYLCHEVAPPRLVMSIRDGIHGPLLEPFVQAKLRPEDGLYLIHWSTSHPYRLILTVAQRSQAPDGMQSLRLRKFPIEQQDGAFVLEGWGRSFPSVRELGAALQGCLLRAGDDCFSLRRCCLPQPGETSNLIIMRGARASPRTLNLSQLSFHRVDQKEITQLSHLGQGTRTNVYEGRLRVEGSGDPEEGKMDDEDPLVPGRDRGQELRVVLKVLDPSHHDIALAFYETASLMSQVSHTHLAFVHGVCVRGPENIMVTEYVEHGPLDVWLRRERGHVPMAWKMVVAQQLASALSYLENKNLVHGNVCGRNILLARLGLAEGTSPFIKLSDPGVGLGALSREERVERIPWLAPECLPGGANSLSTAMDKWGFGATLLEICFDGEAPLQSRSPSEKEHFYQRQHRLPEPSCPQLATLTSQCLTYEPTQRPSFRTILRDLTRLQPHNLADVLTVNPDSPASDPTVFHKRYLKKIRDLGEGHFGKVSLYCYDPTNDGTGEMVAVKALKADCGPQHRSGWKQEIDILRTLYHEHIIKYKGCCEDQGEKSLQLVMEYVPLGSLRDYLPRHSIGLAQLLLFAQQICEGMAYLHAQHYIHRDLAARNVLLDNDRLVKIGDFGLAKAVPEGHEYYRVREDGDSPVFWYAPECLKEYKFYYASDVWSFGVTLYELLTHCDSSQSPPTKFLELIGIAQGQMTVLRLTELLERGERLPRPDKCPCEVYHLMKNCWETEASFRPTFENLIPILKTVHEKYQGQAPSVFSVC
Experimental: as §1, §2

PDGFRβ = PDGFRβ (Homo sapiens, UniProt P09619); test: Kinase inhibition profile; format: biochemical; conditions: 200 nM; read-out: inhibitory activity
Experimental: as §1, §2

TrkB = TrkB (Homo sapiens, UniProt Q16620); test: Kinase inhibition profile; format: biochemical; conditions: 200 nM; read-out: inhibitory activity
Experimental: as §1, §2

JNK2 = JNK2 (Homo sapiens, UniProt P45984); test: Kinase inhibition profile; format: biochemical; conditions: 200 nM; read-out: inhibitory activity
JNK2, sequence (P45984 whole entry, species assumed): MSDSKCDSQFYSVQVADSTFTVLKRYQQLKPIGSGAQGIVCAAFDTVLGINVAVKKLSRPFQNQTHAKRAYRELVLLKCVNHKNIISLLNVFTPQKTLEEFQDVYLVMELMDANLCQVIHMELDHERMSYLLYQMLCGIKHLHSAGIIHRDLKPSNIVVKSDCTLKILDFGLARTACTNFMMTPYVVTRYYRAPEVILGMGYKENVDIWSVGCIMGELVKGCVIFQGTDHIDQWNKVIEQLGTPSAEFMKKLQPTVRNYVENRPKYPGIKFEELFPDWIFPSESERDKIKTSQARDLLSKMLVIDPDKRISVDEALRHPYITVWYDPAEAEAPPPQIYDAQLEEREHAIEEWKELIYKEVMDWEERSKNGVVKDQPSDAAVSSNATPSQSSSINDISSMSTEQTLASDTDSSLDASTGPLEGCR
Experimental: as §1, §2

KIT = KIT (Homo sapiens, UniProt P10721); test: Kinase inhibition profile; format: biochemical; conditions: 200 nM; read-out: inhibitory activity
Experimental: as §1, §2

CHK2 = CHK2 (Homo sapiens, UniProt O96017); test: Kinase inhibition profile; format: biochemical; conditions: 200 nM; read-out: inhibitory activity
Experimental: as §1, §2

JAK2 = JAK2 (Homo sapiens, UniProt O60674); test: Kinase inhibition profile; format: biochemical; conditions: 200 nM; read-out: inhibitory activity
Experimental: as §1, §2

RET = RET (Homo sapiens, UniProt P07949); test: Kinase inhibition profile; format: biochemical; conditions: 200 nM; read-out: inhibitory activity
Experimental: as §1, §2

PDGFRα = PDGFRα (Homo sapiens, UniProt P16234); test: Kinase inhibition profile; format: biochemical; conditions: 200 nM; read-out: inhibitory activity
Experimental: as §1, §2

TNK1 = TNK1 (Homo sapiens, UniProt Q13470); test: Kinase inhibition profile; format: biochemical; conditions: 200 nM; read-out: inhibitory activity
Experimental: as §1, §2

CaMK2a = CaMK2a (Homo sapiens, UniProt Q9UQM7); test: Kinase inhibition profile; format: biochemical; conditions: 200 nM; read-out: inhibitory activity
Experimental: as §1, §2

BLK = BLK (Homo sapiens, UniProt P51451); test: Kinase inhibition profile; format: biochemical; conditions: 200 nM; read-out: inhibitory activity
BLK, sequence (P51451 whole entry, species assumed): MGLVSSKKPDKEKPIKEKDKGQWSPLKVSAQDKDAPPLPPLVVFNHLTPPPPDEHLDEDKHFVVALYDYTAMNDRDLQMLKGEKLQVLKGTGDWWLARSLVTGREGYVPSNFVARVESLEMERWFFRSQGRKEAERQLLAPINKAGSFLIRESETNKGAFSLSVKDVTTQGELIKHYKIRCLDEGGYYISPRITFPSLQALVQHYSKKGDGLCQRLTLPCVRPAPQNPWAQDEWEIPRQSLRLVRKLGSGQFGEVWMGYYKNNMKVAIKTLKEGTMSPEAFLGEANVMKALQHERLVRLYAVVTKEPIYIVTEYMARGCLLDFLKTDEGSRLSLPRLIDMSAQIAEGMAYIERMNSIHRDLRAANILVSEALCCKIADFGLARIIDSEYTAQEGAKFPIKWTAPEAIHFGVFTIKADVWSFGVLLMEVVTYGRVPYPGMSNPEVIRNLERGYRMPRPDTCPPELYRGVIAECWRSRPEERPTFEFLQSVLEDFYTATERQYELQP
Experimental: as §1, §2

JNK1 = JNK1 (Homo sapiens, UniProt P45983); test: Kinase inhibition profile; format: biochemical; conditions: 200 nM; read-out: inhibitory activity
JNK1, sequence (P45983 whole entry, species assumed): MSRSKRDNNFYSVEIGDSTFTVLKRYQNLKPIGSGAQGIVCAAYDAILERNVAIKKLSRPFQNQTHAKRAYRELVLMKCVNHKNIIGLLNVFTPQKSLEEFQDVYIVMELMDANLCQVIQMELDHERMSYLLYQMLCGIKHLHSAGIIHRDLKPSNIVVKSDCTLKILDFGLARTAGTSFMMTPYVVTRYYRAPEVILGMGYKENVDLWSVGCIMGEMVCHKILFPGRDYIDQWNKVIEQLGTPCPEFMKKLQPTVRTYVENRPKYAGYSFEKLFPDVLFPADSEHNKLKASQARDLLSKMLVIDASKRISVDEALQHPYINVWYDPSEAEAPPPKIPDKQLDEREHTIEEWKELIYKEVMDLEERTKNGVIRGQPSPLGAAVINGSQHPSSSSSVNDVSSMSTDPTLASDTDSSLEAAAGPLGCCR
Experimental: as §1, §2

AurA = AurA (Homo sapiens, UniProt O14965); test: Kinase inhibition profile; format: biochemical; conditions: 200 nM; read-out: inhibitory activity
AurA, sequence (O14965 whole entry, species assumed): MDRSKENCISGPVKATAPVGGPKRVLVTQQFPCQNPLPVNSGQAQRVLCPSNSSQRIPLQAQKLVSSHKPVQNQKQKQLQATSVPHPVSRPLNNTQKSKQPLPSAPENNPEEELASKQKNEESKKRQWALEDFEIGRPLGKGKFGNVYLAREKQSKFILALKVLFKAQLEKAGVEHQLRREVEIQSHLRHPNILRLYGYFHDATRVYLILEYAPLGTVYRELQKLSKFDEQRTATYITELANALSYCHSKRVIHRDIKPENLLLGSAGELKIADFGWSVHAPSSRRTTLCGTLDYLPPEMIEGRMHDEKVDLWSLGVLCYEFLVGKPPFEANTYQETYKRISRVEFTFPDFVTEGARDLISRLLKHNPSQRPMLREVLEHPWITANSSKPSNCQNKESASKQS
Experimental: as §1, §2

CHK1 = CHK1 (Homo sapiens, UniProt O14757); test: Kinase inhibition profile; format: biochemical; conditions: 200 nM; read-out: inhibitory activity
Experimental: as §1, §2

[3] = animal model of pancreatic pain; cited from earlier work
protein kinase C (PKC) = conditions: cited from earlier work
[4] = system: transplanted psoriatic plaques; conditions: 2 weeks of therapy, double-blinded, placebo-controlled; cited from earlier work

Structure (SMILES): COC(=O)[C@]1(O)C[C@@H]2O[C@@]1(C)n1c3ccccc3c3c4c(c5c6ccccc6n2c5c31)C(=O)NC4 [Compound K-252a, K-252a]
- concentration at 30 min ([1]; sacrificed after 30 minutes): 23.3 ng/mL
- concentration at 60 min ([1]; sacrificed after 60 minutes): 42.1 ng/mL
- concentration at 3 h ([2]; male, Balb/c, mouse, plasma, topical, 1.03 mg/kg): 110 nM
- concentration at 3 h ([2]; read-out: Mean Plasma Concentration): 110.19 nM
- inhibition at 0.2 µM (FLT3): > 90%
- inhibition at 0.2 µM (JAK1): 80 to 90%
- inhibition at 0.2 µM (MET): 80 to 90%
- inhibition at 0.2 µM (TrkC): > 90%
- inhibition at 0.2 µM (FGR): 80 to 90%
- inhibition at 0.2 µM (JAK3): > 90%
- inhibition at 0.2 µM (MER): 80 to 90%
- inhibition at 0.2 µM (TYK2): > 90%
- inhibition at 0.2 µM (PDGFRβ): > 90%
- inhibition at 0.2 µM (TrkB): > 90%
- inhibition at 0.2 µM (JNK2): > 90%
- inhibition at 0.2 µM (KIT): 80 to 90%
- inhibition at 0.2 µM (CHK2): > 90%
- inhibition at 0.2 µM (JAK2): > 90%
- inhibition at 0.2 µM (RET): > 90%
- inhibition at 0.2 µM (PDGFRα): > 90%
- inhibition at 0.2 µM (TNK1): > 90%
- inhibition at 0.2 µM (CaMK2a): 80 to 90%
- inhibition at 0.2 µM (BLK): 80 to 90%
- inhibition at 0.2 µM (JNK1): > 90%
- inhibition at 0.2 µM (AurA): > 90%
- inhibition at 0.2 µM (CHK1): > 90%
- hypersensitivity [3]: attenuates hypersensitivity
- inhibition of protein kinase C (protein kinase C (PKC)): strongly inhibits
- psoriasis improvement [4]: significantly improved
